A short description of data set [1]: Photophysical properties (fluorescence spectroscopy, quantum yield). It counts as physicochemical. As to the method: IC7-1 derivatives were dissolved in chloroform or 5% FBS to give a concentration of 1 μmol/L for fluorescence spectroscopy analysis. Excitation spectra were measured following the emission at 850 nm, and emission spectra were measured following excitation at 823 nm. Quantum yields were determined using a Fluorolog-3 spectrofluorometer equipped with an integrating sphere.

The subject of data set [2] is HeLa cells. The data set is described as follows: Cellular localization study (fluorescence microscopy with NAO mitochondria marker). It counts as cell-based, human. The settings on record: 1 μmol/L, 60 min, NAO 100 nmol/L. As to the method: HeLa cells (3 × 10^5 cells) were cultured in a poly-L-lysine coated glass bottom dish for 24 h at 37°C before use. Cells were washed twice with phosphate-buffered saline (PBS) and then incubated with the IC7-1 derivative dissolved in dimethyl sulfoxide (DMSO) (1 μmol/L final concentration) in DMEM supplemented with 5% FBS and 1% penicillin and streptomycin for 60 min. To determine the dye localization, mitochondria were labeled with NAO (100 nmol/L final concentration) for 20 min before completion of the incubation with IC7-1 derivative. Next, the cells were washed twice each with DMEM and PBS. Cells were viewed with a fluorescence microscope under a 100× oil-immersion objective lens. MetaMorph® software (Molecular Devices, LLC, Sunnyvale, CA) was used for imaging analysis.

In data set [3] the test system is HeLa cells. The data set is described as follows: Cellular uptake study with uncoupler CCCP. The format is cell-based, human. Particulars: dye 1 μmol/L, 60 min, CCCP 0-25 μmol/L. As to the method: A cellular uptake study was conducted as reported previously. Briefly, the buffer solution (pH 7.4) for the cellular uptake study was composed of NaCl ([…]), KCl (5.4 mmol/L), CaCl2 (1.2 mmol/L), MgSO4 (0.8 mmol/L), NaH2PO4 (0.8 mmol/L), dextrose (5.6 mmol/L), and 4-(2-hydroxyethyl)-1-piperazineethanesulfonic acid) (5 mmol/L). HeLa cells (1 × 10^6 cells/mL buffer solution) were incubated with carbonyl […] m-chlorophenylhydrazone (CCCP; 0, 0.1, 0.25, 0.5, 0.75, 1, 2.5, 5, 10, and 25 μmol/L) for 5 min at 37°C in 1.5 mL microtubes, followed by the addition of the IC7-1 derivative (1 μmol/L final concentration). After a 60-min incubation with the IC7-1 derivative, the cells were washed twice and resuspended with buffer solution. The fluorescence intensity was measured following the excitation at 823 nm and the emission from 840 to 900 nm, and the normalized intensity (%) was calculated as a percentage of fluorescence intensity obtained with CCCP untreated (0 μmol/L) cells.
The buffer solution (pH 7.4) for the cellular uptake study was composed of NaCl (145 mM), KCl (5.4 mM), CaCl2 (1.2 mM), MgSO4 (0.8 mM), NaH2PO4 (0.8 mM), dextrose (5.6 mM), and HEPES (5 mM). The HeLa cells (1 x 10^6 cells / ml buffer solution) were incubated with an uncoupler (CCCP; 0, 0.1, 0.25, 0.5, 0.75, 1, 2.5, 5, 10, and 25 µM) for 5 min at 37 °C in 1.5 mL microtubes, followed by the addition of IR-780 or IC7-1-Bu (1 µM final concentration) After a 60 min incubation with the dyes, the cells were washed twice and resuspended with buffer solution. Fluorescence intensity was measured following the excitation at 763 nm and the emission from 780 to 880 nm for IR-780, and the excitation at 823 nm and the emission from 840 to 900 nm for IC7-1-Bu. The normalized intensity (%) was calculated as a percentage of fluorescence intensity obtained with CCCP untreated (0 µM) cells.

Data set [4] deals with T1, albumin-binding site I (warfarin-binding site) (Bos taurus, UniProt P02769).
T1 construct: incubated for 30 min in PBS (pH 7.4) containing 5% DMSO and 5% FBS; from tissue; host or cells: fetal bovine serum (5% in PBS)
The data set is described as follows: Protein-binding assay with competitive inhibitors in 5% FBS. It counts as in vitro ADME, bovine. Particulars: for Normalized fluorescence intensity with warfarin (albumin site I inhibitor): 5% FBS, inhibitor 189 μmol/L, dye 1 μmol/L. The protocol: A protein-binding assay was conducted as reported previously. Briefly, warfarin, ibuprofen, digoxin, and quinidine were used as competitive inhibitors of albumin-binding sites I, II, III, and […], respectively. The inhibitors (0 and 189 μmol/L) were incubated for 30 min in PBS (pH 7.4) containing 5% DMSO and 5% FBS at room temperature. Immediately after the addition of the IC7-1 derivative (1 μmol/L final concentration), the fluorescence intensity was measured following the excitation at 823 nm and the emission from 840 to 900 nm. The normalized intensity (%) was calculated as a percentage of fluorescence intensity obtained from an inhibitor untreated sample.

Another data set has as its target BSA (Bos taurus, UniProt P02769). Put plainly: Association constants of IC7-1 derivatives to albumin (fluorimetric titration). The format is binding, bovine. Particulars: dye 1 µM, BSA 0-1.0 µM, 30 min; read-out: Ka, association constant of dye-albumin complex (converted). As to the method: Binding studies of IC7-1 derivatives to albumin were conducted as reported previously (Beckford G et al. The solvatochromic effects of side chain substitution on the binding interaction of novel tricarbocyanine dyes with human serum albumin. Talanta 2012;92: 45-52). Briefly, IC7-1 derivatives (1 µM final concentration) were incubated with BSA (0, 0.4, 0.6, 0.8, and 1.0 µM) for 30 min to equilibrate. The fluorescence intensity was measured following the excitation at 823 nm and the emission from 840 to 900 nm. The interaction between dye D and albumin A can be expressed by Eq. 1:
The association constant for the dye-albumin complex formation can be expressed by Eq. 2:
Then, the association constant Ka of the dye-albumin complex was calculated from the data for the fluorimetric titration of the dye with albumin using Eq. 3:
1/ΔF = 1/k[D] + (1/(k[D]Ka))·(1/[A]) (3)
where k is a constant depending on the instrumentation and quantum efficiency of the process.
Therefore, a plot of the reciprocal of ΔF versus the reciprocal of albumin concentration gives a straight line. The association constant was calculated by dividing the intercept by the slope of the line.

For data set [5], the system named is HeLa cell xenograft. Put plainly: In vivo imaging study in HeLa cell xenograft mice. The protocol:
Animal experiments were conducted in accordance with institutional guidelines and were approved by the Kyoto University Animal Care Committee. […] HeLa cells (2 × 10^6 cells in 100 μL of PBS) were subcutaneously inoculated into the right hind legs of mice. Fourteen days after implantation, mice were used for the imaging study.
Clairvivo® OPT measurement and display software ver. 2.6.0.0. (SHIMADZU Co.) was used for imaging analysis.
Exposure time was 5s for the scan at 3 h, and 3s for the other scans. Clairvivo® OPT measurement and display software ver. 2.6.0.0. (SHIMADZU Co., Kyoto, Japan) was used for imaging analysis.

In data set [6] the test system is HeLa cell xenograft. The data set is described as follows: In vivo blocking study with protein-binding inhibitor warfarin. Set-up: species or system mice. The protocol: (§1) Animal experiments were conducted in accordance with institutional guidelines and were approved by the Kyoto University Animal Care Committee. Female nude mice (BALB/c nu/nu 4-weeks old), supplied by Japan SLC, Inc. (Shizuoka, Japan), were housed under a 12 h light/12 h dark cycle and were given free access to food (D10001) and water. HeLa cells (2 × 10^6 cells in 100 μL of PBS) were subcutaneously inoculated into the right hind legs of mice. Fourteen days after implantation, mice were used for the imaging study.
An in vivo blocking study using a protein-binding inhibitor was conducted as reported previously. Briefly, IC7-1-Bu (10 nmol, 100 μL) and warfarin (5.5 μmol, 100 μL) were simultaneously administered to mice via the tail vein, and the mice were imaged using the same method as described above.

Data set [7] deals with HeLa cell xenograft. Put plainly: In vivo blocking study with uncoupler CCCP. Set-up: species or system mice. The settings on record: intratumoral CCCP 0.25 mg/kg, imaged 1 and 3 h. The protocol:
as §1
In the in vivo blocking study using an uncoupler, IC7-1-Bu (10 nmol, 100 μL) was administered to tumor-bearing mice via the tail vein immediately after intratumoral injection of CCCP (2.5 mL/kg, 0.25 mg/kg). Mice were imaged 1 and 3 h after administration of the imaging agent using the same method as described above.

Details of data set [8]: method as in PMID 21469142. The settings on record: cited from earlier work.

T1 sequence (P02769 25-607): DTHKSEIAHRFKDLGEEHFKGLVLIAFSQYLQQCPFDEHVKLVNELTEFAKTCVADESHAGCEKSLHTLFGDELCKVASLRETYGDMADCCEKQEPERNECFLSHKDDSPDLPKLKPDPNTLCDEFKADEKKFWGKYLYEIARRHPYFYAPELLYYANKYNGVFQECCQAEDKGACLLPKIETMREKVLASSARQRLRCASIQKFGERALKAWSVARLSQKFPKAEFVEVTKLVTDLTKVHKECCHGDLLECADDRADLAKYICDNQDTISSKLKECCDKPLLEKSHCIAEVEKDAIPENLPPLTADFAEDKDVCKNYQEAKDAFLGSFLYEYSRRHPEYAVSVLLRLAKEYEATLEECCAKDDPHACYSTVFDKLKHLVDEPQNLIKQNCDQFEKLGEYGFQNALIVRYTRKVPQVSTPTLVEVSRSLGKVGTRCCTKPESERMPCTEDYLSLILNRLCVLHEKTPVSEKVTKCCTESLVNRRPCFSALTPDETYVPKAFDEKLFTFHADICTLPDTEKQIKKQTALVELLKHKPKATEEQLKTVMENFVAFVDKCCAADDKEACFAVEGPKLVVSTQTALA
Chain of BSA (P02769 25-607): as above

Consider `CCCCN1/C(=C/C=C2\CCCC(/C=C/C3=[N+](CCCC)c4ccc5ccccc5c4C3(C)C)=C2Cl)C(C)(C)c2c1ccc1ccccc21` [IC7-1-Bu, 3-Butyl-2-(2-{3-[2-(3-butyl-1,1-dimethyl-1,3-dihydro-benz[e]indol-2-ylidene)-ethylidene]-2-chloro-cyclohex-1-enyl}-vinyl)-1,1-dimethyl-1H-benz[e]indolium], for which the “Φ, quantum yield” value in data set [1] (5% FBS) is 0.04; in data set [1] (CHCl3), 0.06. The “ε, extinction coefficient” value in [1] (5% FBS) amounted to 130000 mol/L/cm; in data set [1] (CHCl3), 330000 mol/L/cm. The “emmax, maximum emission wavelength” value amounted to 849 nm in data set [1] (5% FBS, 1 μmol/L) and 845 nm in [1] (CHCl3, 1 μmol/L). Moreover, the “exmax, maximum excitation wavelength” value in data set [1] (5% FBS, 1 μmol/L) is 823 nm; in data set [1] (CHCl3, 1 μmol/L), 823 nm. Besides, the “Subcellular localization of NIR fluorescence” value in the data set with HeLa cells [2] was “colocalized fluorescence with NAO”. Besides, the “Normalized cellular fluorescence intensity under CCCP treatment” value with HeLa cells [3] was “reduced cellular fluorescence from treatment with a low CCCP concentration”. Further, the “Absorbance peak and fluorescence in 5% FBS versus 0% FBS solution” value in data set [4] (5% FBS vs 0% FBS) is on record as “significantly higher in 5% FBS solution than in 0% FBS solution”. For the same compound, the “Normalized fluorescence intensity with warfarin (albumin site I inhibitor)” value in [4] is reported as “specifically bound to albumin”. The compound also came in with an Absorbance peak in data set [4] (FBS solution) of 836 nm. Further, the Kd at BSA was 476 nM. In addition, in the data set with HeLa cell xenograft [5] (10 nmol i.v.), the “Retention of tumor fluorescence after i.v. administration” value amounted to 72 h. Moreover, the “Tumor fluorescence intensity group from ROI analysis” value in the data set on HeLa cell xenograft [5] (10 nmol i.v.) is given as “high intensity group”. The “Fluorescence intensity at the tumor region” value with HeLa cell xenograft [5] (10 nmol i.v., 24, 48 and 72 h) is listed as “strong fluorescence intensity at the tumor region up to 72 h”. Besides, the “Tumor depiction in fluorescence images” value in the data set with HeLa cell xenograft [5] (10 nmol i.v., 24, 48 and 72 h) is given as “Tumors were clearly depicted”. The “Fluorescence intensity after co-administration of warfarin” value in the data set on HeLa cell xenograft [6] (IC7-1-Bu 10 nmol + warfarin 5.5 μmol i.v., 24-72 h) is “diminished throughout the body”. For the same compound, the “Tumor to neck fluorescence ratio” value in the data set on HeLa cell xenograft [6] (warfarin (+), after 1 day) turned out to be 2.36 ± 0.09; in the data set with HeLa cell xenograft [6] (warfarin (+), after 2 day) it was 2.49 ± 0.10; with HeLa cell xenograft [6] (warfarin (+), after 3 day) it was 2.46 ± 0.09; with HeLa cell xenograft [6] (warfarin (−), after 1 day), 1.94 ± 0.11; in the data set with HeLa cell xenograft [6] (warfarin (−), after 2 day), 2.02 ± 0.15; in the data set on HeLa cell xenograft [6] (warfarin (−), after 3 day), 2.07 ± 0.48. Also, the “Fluorescence intensity at the tumor after CCCP pretreatment” value in the data set with HeLa cell xenograft [7] is given as “significantly decreased by CCCP pretreatment”.

Regarding `CC1(C)C(/C=C/C=C/C=C/C=C2\N(CCCCS(=O)(=O)O)c3ccc4ccccc4c3C2(C)C)=[N+](CCCCS(=O)(=O)[O-])c2ccc3ccccc3c21` [ICG, indocyanine green], the “Clearance and tumor accumulation after i.v. administration” value in data set [8] is “rapid clearance through the liver into feces with low accumulation in tumors”.

Turning to `CCCN1/C(=C/C=C2\CCCC(/C=C/C3=[N+](CCC)c4ccc5ccccc5c4C3(C)C)=C2Cl)C(C)(C)c2c1ccc1ccccc21` [IC7-1-Pr, 3-Propyl-2-(2-{3-[2-(3-propyl-1,1-dimethyl-1,3-dihydro-benz[e]indol-2-ylidene)-ethylidene]-2-chloro-cyclohex-1-enyl}-vinyl)-1,1-dimethyl-1H-benz[e]indolium], the figures for the “Φ, quantum yield” value in data set [1] (5% FBS) and in data set [1] (CHCl3) were 0.05 and 0.07, respectively. Moreover, the “ε, extinction coefficient” value in data set [1] (5% FBS) stood at 130000 mol/L/cm; in data set [1] (CHCl3) it was 330000 mol/L/cm. In addition, the “emmax, maximum emission wavelength” value in data set [1] (5% FBS, 1 μmol/L) stood at 843 nm; in data set [1] (CHCl3, 1 μmol/L) it was 845 nm. The “exmax, maximum excitation wavelength” value in data set [1] (5% FBS, 1 μmol/L) came out at 823 nm; in data set [1] (CHCl3, 1 μmol/L), 823 nm. Further, the “Subcellular localization of NIR fluorescence” value in the data set with HeLa cells [2] is “colocalized fluorescence with NAO”. Besides, the “Normalized cellular fluorescence intensity under CCCP treatment” value with HeLa cells [3] is recorded as “reduced cellular fluorescence from treatment with a low CCCP concentration”. In addition, the “Normalized fluorescence intensity with warfarin (albumin site I inhibitor)” value in data set [4] is reported as “specifically bound to albumin”. In addition, the Kd on BSA is 417 nM. Further, the “Tumor fluorescence intensity group from ROI analysis” value in the data set on HeLa cell xenograft [5] (10 nmol i.v.) is “mild intensity group”. Moreover, in the data set on HeLa cell xenograft [5] (10 nmol i.v., 24, 48 and 72 h), the “Tumor depiction in fluorescence images” value was “Tumors were clearly depicted”.

The values above are taken from paper PMC4303146, “Investigation of cyanine dyes for in vivo optical imaging of altered mitochondrial membrane potential in tumors” (Cancer Medicine, 2014).
